In data set [1] the test system is HIV isolate LAV-1BR in PHA stimulated human PBL. In words: Production of intracellular HIV p24 measured by ELISA. The format is cell-based. Particulars: for pg/ml HIV p24: intracellular p24, ELISA, DMSO control 1222. How it is done: (§1) The effect of various drugs on growth of HIV isolate LAV-1BR in PHA stimulated human PBL was measured using two assays. Reverse transcriptase activity was measured in disrupted virions from the cell free supernatant as previously described (Anand et al, "Interaction between rifabutin and human immunodeficiency virus type-1: inhibition of replication, cytopathic effect and reverse transcriptase in vitro," Antimicrob. Agents Chemother. 32 684-688 (1988)).
(In general: ELISA stands for enzyme-linked immunosorbent assay.)

Data set [2] in a line: Binding to serum proteins. The format is in vitro ADME. The conditions noted are these: not shown.
Data set [3] has as its system HIV isolate LAV-1BR in PHA stimulated human PBL. In words: microbe, parasite or virus in culture. The format is cell-based. The conditions noted are these: for CPM RT: [3H]-TTP incorporated by reverse transcriptase, DMSO control 6338. Here is the method:
as §1

Data set [4] in a line: Viability of PBL after 72 hr culture (propidium iodide exclusion). The format is cell-based, human. Particulars: human, PBL, 72 hr culture, untreated 90, read-out: % Viable Cells. How it is done: (§2) The effect of compounds on the viability of PBL was determined after culturing PBL for 72 hr at 37° C. Some cells were stimulated with 1 μl/ml of anti-T-cell receptor antibody for this time period. Cells were then washed 1× in PBS and resuspended in PBS with 3 μg/ml propidium iodide. After 10 min incubation cells were analyzed by flow cytometry. Live cells were defined as those excluding propidium iodide.

Data set [5] addresses T1, binding of HIV rgp120 to CD4 on peripheral blood lymphocytes (Homo sapiens, UniProt P01730).
T1 construct: Human peripheral blood lymphocytes (PBL) were prepared by density gradient centrifugation; endogenous in cells; host or cells: human peripheral blood lymphocytes (PBL)
In words: Inhibition of HIV rgp120 binding to PBL, detected with anti-rgp120-FITC, flow cytometry. Particulars: 10 min, rgp120 binding detected by αrgp120-FITC in PBS, % logarithmic mean channel number. How it is done:
(§3) Human peripheral blood lymphocytes (PBL) were prepared by density gradient centrifugation as previously described (Weaver et al., 1990). The effect of drugs on the binding of anti-CD4-FITC (αCD4), anti-CD3-FITC (αCD3), anti-CD8-FITC (αCDS), or HIV coat protein rgp120 was measured as previously described (Weaver et al., 1990). Briefly, cells were treated with a drug (10' RT) and then FITC labeled antibody or rgp120 followed by anti-rgp120-FITC. Binding was measured by quantitating cell bound fluorescence using flow cytometry. Some binding assays were run in phenol red free RPMI 1640/5% serum instead of the usual PBS to determine effectiveness under cell culture conditions.
The results shown in Table 2 confirm that the three dyes selected on the basis of their interference with αCD4 binding can also block binding of rgp120. Their relative efficacy appears to be similar in both assays.

For another data set, the system named is αCD8 binding to PBL. In words: Specificity: binding of αCD8-FITC to PBL. Also on record: species or system human. The conditions noted are these: for % Control Binding αCD8: αCD8-FITC binding in PBS, 10 min. How it is done: as §3
(§4) We have analyzed the specificity of these compounds by testing their ability to interfere with the binding of two other monoclonal antibodies, αCD3 and αCD8. […] The increase in binding of αCD3 on Direct Red 79 treated cells may reflect nonspecific binding.

The target in a further data set is T2, CD4 on PBL (Homo sapiens, UniProt P01730).
T2 construct: Human peripheral blood lymphocytes (PBL) were prepared by density gradient centrifugation; endogenous in cells; host or cells: human peripheral blood lymphocytes (PBL)
The data set is described as follows: Inhibition of binding of αCD4-FITC (anti-Leu3a) to PBL, flow cytometry. Particulars: for remaining activity at 7 µM: compound 7 μM. Here is the method:
as §3
Since anti-Leu3a (αCD4) and rgp120 bind to the same site on the CD4 molecule, interference in binding of αCD4 can be used to screen compounds for possible anti-HIV activity. EB or ATA are used as positive controls since they have been shown previously to block eCD4 and rpg120 binding (Weaver et al, "Polyionic compounds selectively alter availability of CD4 receptors for HIV coat protein rgp120," AIDS Res. Human Retrovir. 6 1125-1130 (1990)). […] Six of the dyes tested show significant ability to block αCD4 binding. Three compounds, Acid Blue 116, Acid Red 115, and Direct Red 79 were selected for more complete analysis.
For orientation: Flow cytometry measures light scatter and fluorescence of single cells or particles in a stream.

In the next data set the target is T3, αCD3 binding to PBL (Homo sapiens, UniProt P07766).
T3 construct: Human peripheral blood lymphocytes (PBL) were prepared by density gradient centrifugation; endogenous in cells; host or cells: human peripheral blood lymphocytes (PBL)
T3 sequence (P07766 23-207): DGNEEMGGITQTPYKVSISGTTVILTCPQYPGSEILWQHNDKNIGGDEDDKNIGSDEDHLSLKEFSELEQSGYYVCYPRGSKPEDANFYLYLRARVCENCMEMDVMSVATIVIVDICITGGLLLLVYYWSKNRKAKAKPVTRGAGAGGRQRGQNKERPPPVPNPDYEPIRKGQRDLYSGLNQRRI
T3 sequence (P04234 22-171 partner): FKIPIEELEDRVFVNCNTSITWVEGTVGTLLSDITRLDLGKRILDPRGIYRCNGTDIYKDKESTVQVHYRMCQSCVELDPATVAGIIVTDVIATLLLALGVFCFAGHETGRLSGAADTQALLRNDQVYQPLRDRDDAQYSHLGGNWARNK
T3 sequence (P09693 23-182 partner): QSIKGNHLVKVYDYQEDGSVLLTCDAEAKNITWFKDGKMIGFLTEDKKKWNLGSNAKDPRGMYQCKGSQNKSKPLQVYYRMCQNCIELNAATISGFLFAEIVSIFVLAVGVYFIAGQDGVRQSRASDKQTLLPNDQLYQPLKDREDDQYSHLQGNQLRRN
T3 sequence (P20963 22-164 partner): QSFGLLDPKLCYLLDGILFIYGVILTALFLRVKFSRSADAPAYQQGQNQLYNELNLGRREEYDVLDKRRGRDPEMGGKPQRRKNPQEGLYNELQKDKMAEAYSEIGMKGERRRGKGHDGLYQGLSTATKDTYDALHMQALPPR
In words: Specificity: binding of αCD3-FITC to PBL. How it is done: as §3, §4

Data set [6] in a line: Solubility in aqueous solutions. The format is physicochemical. Particulars: concentrations needed for efficacy in the presence of serum.
Data set [7] can be described thus: Viability of PBL after 72 hr culture with anti-TCR stimulation (propidium iodide exclusion). The format is cell-based, human. Particulars: human, anti-tcr stimulated pbl; PBL, 72 hr culture with anti-TCR stimulation, 100 μM; untreated 78; read-out: % Viable Cells. Here is the method:
as §2

The test system of the next data set is anti-TCR stimulated PBL. The description is as above. The conditions noted are these: Table 5. The format is cell-based, human. How it is done: as §2
The next data set deals with PBL. The data set is described as follows: Viability of PBL after 72 hr culture (propidium iodide exclusion). The format is cell-based, human. The conditions noted are these: 72 hr of continuous culture. Here is the method: as §2
Where [8] appears, read: 10 min, αCD4-FITC binding to PBL in PBS, % logarithmic mean channel number, read-out: % Control Binding.
[9] abbreviates: 10 min, αCD4-FITC binding to PBL in PBS, % logarithmic mean channel number, compound 10 μM, read-out: % Control Binding.

Each structure is given as a SMILES string.

On to `O=C(O)C1=CC(=C(c2ccc(O)c(C(=O)O)c2)c2ccc(O)c(C(=O)O)c2)C=CC1=O` [ATA, aurin tricarboxlyic acid, reference compound], for which the figures for the “pg/ml HIV p24” value in data set [1] (0.25 μg/ml) and in data set [1] (2.5 μg/ml) were 111 pg/mL and 0 pg/mL, respectively. Also, the “binding to serum proteins (in words)” value in data set [2] is on record as “does not bind to serum proteins”. The inhibition at 1 µM in [3] (Human immunodeficiency virus 1, 144 h, HIV reverse transcriptase activity, six day culture, 1 μM) is 97%. Also, the “CPM RT” value in [3] (six day culture, 1 μM) was 109 CPM. Moreover, the viability at 72 h, 10 µM in data set [4] (10 μM) was found to be 86%.
In data set [5] (compound 7 μM), `O=S(=O)(O)c1ccc2c(N=Nc3ccccc3)ccc(N=Nc3ccc(Nc4ccccc4)c4c(S(=O)(=O)O)cccc34)c2c1` [Acid Blue 116, C.I. Acid Blue 116] gave a remaining rgp120 binding (% of control) at 7 µM of 9%. In the data set on αCD8 binding to PBL (Table 3), the “reduction of binding of αCD8 (fraction)” value is recorded as “about 1/2”. For the same molecule, the “% Control Binding αCD8” value with αCD8 binding to PBL (compound 4 μM) came to 54%. Moreover, the remaining activity at 4 µM at CD4 on PBL (10 min, Table 3, αCD4-FITC binding in PBS, compound 4 μM, read-out: % Control Binding αCD4) was determined as 1%. The remaining activity at 7 µM on CD4 on PBL (setting [8]) is 0%. The molecule also had a αCD3 binding, % of control at 4 µM at αCD3 binding to PBL (10 min, αCD3-FITC binding in PBS, compound 4 μM) of 44%. Moreover, the “reduction of binding of αCD3 (fraction)” value on αCD3 binding to PBL (Table 3) is given as “about 1/2”. Further, in [6], the “solubility in aqueous solutions (in words)” value is “near their limits of solubility”.
For the molecule `Cc1cc(-c2cc(C)c(N=Nc3c(O)ccc4ccccc34)cc2S(=O)(=O)O)c(S(=O)(=O)O)cc1N=Nc1c(O)ccc2ccccc12` [Acid Red 89, C.I. Acid Red 89], at CD4 on PBL (setting [8]), the remaining activity at 7 µM worked out at 6%.
As to `Cc1ccccc1N=Nc1ccc(N=Nc2c(O)c(S(=O)(=O)[O-])cc3cc(S(=O)(=O)[O-])ccc23)c(C)c1.[Na+].[Na+]` [Acid Red 115, C.I. Acid Red 115], the “% Control Binding” value in [5] (compound 6 μM) is 10%; on CD4 on PBL (αCD4-FITC binding to PBL in PBS, % logarithmic mean channel number, compound 6 μM, 10 min), 2%. Besides, the “% Control Binding αCD8” value in the data set on αCD8 binding to PBL (compound 6 μM) is given as 90%. For the same molecule, the “% Control Binding αCD4” value on CD4 on PBL (Table 3, αCD4-FITC binding in PBS, compound 6 μM, 10 min) stood at 2%. Moreover, the “effect on binding of αCD3 (in words)” value on αCD3 binding to PBL (Table 3) is given as “interferes with αCD3”. Moreover, the “% Control Binding αCD3” value on αCD3 binding to PBL (αCD3-FITC binding in PBS, compound 6 μM, 10 min) came out at 41%. In data set [6], the “solubility in aqueous solutions (in words)” value is on record as “near their limits of solubility”.
Take `COc1cc(-c2ccc(N=Nc3ccc4c(S(=O)(=O)[O-])cc(S(=O)(=O)[O-])c(N)c4c3O)c(OC)c2)ccc1N=Nc1ccc2c(S(=O)(=O)[O-])cc(S(=O)(=O)[O-])c(N)c2c1O.[Na+].[Na+].[Na+].[Na+]` [Direct Blue 1, C.I. Direct Blue 1]: on CD4 on PBL (αCD4-FITC binding to PBL in PBS, % logarithmic mean channel number, compound 10 μM), the “% Control Binding” value is reported as 1%.
With `Nc1ccc2cc(S(=O)(=O)O)cc(O)c2c1N=Nc1ccc(NC(=O)Nc2ccc(N=Nc3c(N)ccc4cc(S(=O)(=O)O)cc(O)c34)c(S(=O)(=O)O)c2)cc1S(=O)(=O)O` [Direct Red 75, C.I. Direct Red 75], the remaining activity at 10 µM on CD4 on PBL (setting [9]) stood at 70%.
Regarding `COc1cc(N=Nc2cc(S(=O)(=O)O)cc3cc(S(=O)(=O)O)cc(O)c23)c(C)cc1NC(=O)Nc1cc(C)c(N=Nc2cc(S(=O)(=O)O)cc3cc(S(=O)(=O)O)cc(O)c23)cc1OC` [Direct Red 79, C.I. Direct Red 79], the “p24 production (in words)” value in data set [1] (intracellular HIV p24 protein) is “strongly decrease”. For the same molecule, the “pg/ml HIV p24” value in data set [1] (5 μg/ml) was found to be 333 pg/mL. The remaining rgp120 binding (% of control) at 10 µM in [5] (compound 10 μM) was found to be 30%. The “effect on binding of αCD8 (in words)” value with αCD8 binding to PBL (Table 3) was “does not affect binding”. Moreover, the “% Control Binding αCD8” value in the data set on αCD8 binding to PBL (compound 20 μM) was determined as 106%. This molecule gave an inhibition at 100 µM in data set [3] (Human immunodeficiency virus 1, 144 h, HIV reverse transcriptase activity, six day culture, 100 μM) of 97%. Further, the “CPM RT” value in data set [3] (six day culture, 100 μM) is 145 CPM. Moreover, the “production of reverse transcriptase activity (in words)” value in data set [3] (after six days of culture) is “strongly inhibit”. Further, on CD4 on PBL (10 min, Table 3, αCD4-FITC binding in PBS, compound 20 μM, read-out: % Control Binding αCD4), the remaining activity at 20 µM is 22%. In addition, the remaining activity at 10 µM on CD4 on PBL (setting [9]) stood at 13%. Further, in data set [7], the viability at 72 h, 100 µM was found to be 54%. Also, the “effect on the proliferation of αTCR stimulated PBL (in words)” value in the data set on anti-TCR stimulated PBL was “limited effect”. For the same molecule, the αCD3 binding, % of control at 20 µM at αCD3 binding to PBL (10 min, αCD3-FITC binding in PBS, compound 20 μM) came to 124%. Besides, at αCD3 binding to PBL (Table 3), the “effect on binding of αCD3 (in words)” value was “does not affect binding”. Further, the viability at 72 h, 400 µM in data set [4] (400 μM) is 89%. For the same molecule, in the data set with PBL, the “effect on the viability of PBL (in words)” value is reported as “no effect”.
Take `O=C(Nc1ccc(N=Nc2ccc(O)c(C(=O)O)c2)cc1)Nc1ccc(N=Nc2ccc(O)c(C(=O)O)c2)cc1` [Direct Yellow 26, C.I. Direct Yellow 26]: the remaining activity at 12 µM at CD4 on PBL (10 min, αCD4-FITC binding to PBL in PBS, % logarithmic mean channel number, compound 12 μM, read-out: % Control Binding) was determined as 84%.
In the case of `Cc1cc(NC(=O)Nc2ccc(N=Nc3cc(S(=O)(=O)O)c4cccc(S(=O)(=O)O)c4c3)c(C)c2)ccc1N=Nc1cc(S(=O)(=O)O)c2cccc(S(=O)(=O)O)c2c1` [Direct Yellow 50, reference compound], the remaining activity at 50 µM at CD4 on PBL (10 min, αCD4-FITC binding to PBL in PBS, % logarithmic mean channel number, compound 50 μM, read-out: % Control Binding) was determined as 42%.
On to `O=S(=O)(O)c1cccc(N=Nc2c(O)ccc3cc(S(=O)(=O)O)cc(S(=O)(=O)O)c23)c1` [FD1], for which the remaining activity at 5 µM on CD4 on PBL (10 min, αCD4-FITC binding to PBL in PBS, % logarithmic mean channel number, compound 5 μM, read-out: % Control Binding) is 102%.

A word on the inhibition: it is the relative decrease from the control value, in per cent. Lower therefore signals a response near the control.

For the origin of these results see US5650441A, “Method of assaying CD4 glycoproteins by using certain azo dyes” (The United States of America, as represented by the …, priority 1994, dated 1997).
